Entries after “also recorded” stand apart in the source; their conditions may differ.
Assays:
[1] = tested on: MCF7 cells; experiment: Short-term viability assay (72 h, sulforhodamine B) with chemotherapeutics; type: cell-based; details: FIG. 7
Procedure: In the experiment of FIG. 7, 5×10^3 MCF7 cells/well were plated in 96-well plates in regular DMEM medium containing 10% FBS. 24 h later, the cell medium was removed and cells were incubated for 24 h either in the same medium or in low-glucose (0.5 g/L) DMEM medium containing 1% FBS (fasting mimicking conditions). 24 h later, 10 μM tamoxifen (Tam) was added to the culture medium where indicated. 24 h later, cells were stimulated with doxorubicin or Taxotere at the indicated concentrations. Viability was determined 72 h later in sulforhodamine B assays.

[2] = literature refs [5], [6]; cited from earlier work
[3] = tested on: MCF7 cells; experiment: Cell viability in control vs fasting mimicking (FMD) medium; type: cell-based; details: FMD = low-glucose (0.5 g/L) DMEM, 1% FBS, vs regular medium, FIG. 1A, 1D
Procedure: In particular, in the experiments of FIGS. 1A-D, 3×10^3 MCF7 (A, D), ZR-75-1 (B) or T47D (C) cells were plated in 96 well plates in regular DMEM medium containing 10% FBS. 24 h later, the cell medium was removed and cells were incubated for 24 h either in the same medium (CTR) or in low-glucose (0.5 g/L) DMEM medium containing 1% FBS (FMD). 24 h later, tamoxifen (Tam) or fulvestrant (Fulv) at the indicated concentrations were added to the culture medium.

[4] = tested on: MCF7 cells; experiment: Cell cycle analysis (G1 arrest); type: cell-based; details: 10 μM tamoxifen, 24 h, FIG. 2A
Procedure: (§1) In particular, in the experiments of FIGS. 2A-D, 5×10^5 MCF7, ZR-75-1 or T47D cells were plated in 6-well plates in regular DMEM medium containing 10% FBS. 24 h later, the cell medium was removed and cells were incubated for 24 h either in the same medium (CTR) or in fasting mimicking conditions or a fasting mimicking diet (FMD). 24 h later, 10 μM tamoxifen (Tam) was added to the culture medium where indicated. 24 h later, cells were used for cell cycle analysis or for mRNA extraction and subsequent determination of E2F1, E2F4 and CCNE1 expression by QPCR.

[5] = tested on: T47D cells; experiment: Cell cycle analysis (G1 arrest); type: cell-based; details: 10 μM tamoxifen, 24 h, FIG. 2C
Procedure: as §1

[6] = tested on: T47D cells; experiment: Cell viability in control vs fasting mimicking (FMD) medium; type: cell-based; details: FMD = low-glucose (0.5 g/L) DMEM, 1% FBS, vs regular medium, FIG. 1C
[7] = tested on: MCF7 cells; experiment: Gene expression by QPCR; type: cell-based
Procedure: as §1
In the experiment of FIG. 4, MCF7, ZR-75-1 or T47D cells were treated as in the experiment of FIG. 2. 24 h after tamoxifen (5 μM) addition, cells were used for protein lysate generation or for mRNA extraction, ER and β-actin were detected by immunoblotting. TTF1 expression was determined by QPCR.
In the experiment of FIG. 6, MCF7, ZR-75-1 or T47D cells were treated as in the experiment of FIG. 2. 24 h after tamoxifen (5 μM) addition, cells were used for RNA extraction or for protein lysate generation. In FIG. 6A, RAD51 expression was detected by QPCR. In FIG. 6B, RAD51 and (β-actin were detected by immunoblotting.

[8] = tested on: T47D cells; experiment: Gene expression by QPCR; type: cell-based
[9] = tested on: MCF7 cells; type: cell-based; details: FMD + tamoxifen 5 μM, 24 h
[10] = tested on: MCF7 cells; experiment: Global gene expression microarrays; type: cell-based
[11] = type: in vivo; details: fasting (water only, 48 h) + tamoxifen 30 mg/kg/die; FIG. 8C
[12] = tested on: T47D cells
[13] = tested on: MCF7 xenografts; experiment: MCF7 xenograft tumor growth
[14] = FMD + tamoxifen 5 μM, 24 h, FIG. 4B
[15] = FMD + tamoxifen 5 μM, 24 h, FIG. 6A
[16] = FMD + tamoxifen 10 μM vs single treatments, FIG. 2D
[17] = MCF7 treated with tamoxifen and FMD, 4 biological replicates/condition
[18] = FMD + tamoxifen 5 μM, 24 h, FIG. 3

For `CC(=O)O[C@@]12CO[C@@H]1C[C@H](O)[C@@]1(C)C(=O)[C@H](O)C3=C(C)[C@@H](OC(=O)[C@H](O)[C@@H](NC(=O)OC(C)(C)C)c4ccccc4)C[C@@](O)([C@@H](OC(=O)c4ccccc4)[C@H]21)C3(C)C` [Taxotere, docetaxel], the “cell viability, triple treatment tamoxifen + Taxotere + FMD” value ([1]; taxotere 100 nM) was “most pronounced reduction in cell viability”.

In the case of `COc1cccc2c1C(=O)c1c(O)c3c(c(O)c1C2=O)C[C@@](O)(C(=O)CO)C[C@@H]3O[C@H]1C[C@H](N)[C@H](O)[C@H](C)O1` [doxorubicin], the “cell viability, triple treatment tamoxifen + doxorubicin + FMD” value ([1]; doxorubicin 100 nM) is reported as “most pronounced reduction in cell viability”.

For `CO[C@H]1C[C@@H]2CC[C@@H](C)[C@@](O)(O2)C(=O)C(=O)N2CCCC[C@H]2C(=O)O[C@H]([C@H](C)C[C@@H]2CC[C@@H](OCCO)[C@H](OC)C2)CC(=O)[C@H](C)/C=C(\C)[C@@H](O)[C@@H](OC)C(=O)[C@H](C)C[C@H](C)/C=C/C=C/C=C/1C` [everolimus], the significant side effects [2] is given as “stomatitis, anemia and hyperglycemia”.

For `C[C@]12CC[C@@H]3c4ccc(O)cc4C[C@@H](CCCCCCCCC[S+]([O-])CCCC(F)(F)C(F)(F)F)[C@H]3[C@@H]1CC[C@@H]2O` (some centres unmarked) [fulvestrant], the “cell viability: potentiation of drug activity by FMD conditions” value (“cell viability: potentiation” below) [3] was “marked increase”, the “induction of a G1 cell cycle arrest, drug + FMD” value (from here on “induction”) [4] was “increased the ability” and the “induction” value [5] was “increased the ability”.

With `CC/C(=C(\c1ccccc1)c1ccc(OCCN(C)C)cc1)c1ccccc1` [tamoxifen] the “cell viability: potentiation” value [3] was “strong potentiation”, the “cell viability: potentiation” value [6] was “strong potentiation” and the “induction” value [4] was “increased the ability”. For the same compound, the “induction” value [5] was “increased the ability; also recorded: only occurred in response to a combined treatment”, the “TTF1 expression (ERα-mediated transcription)” value [7, 14] was “increase the ability of tamoxifen to reduce TTF1 expression” and the “RAD51 expression at the mRNA level” value [7, 15] was “strong RAD51 downregulation”. The “downregulation of cell cycle promoting genes (E2F1, E2F2 and CCNE1)” value [7, 16] was “more pronounced”, the “TTF1 expression (ERα-mediated transcription)” value [8, 14] was “increase the ability of tamoxifen to reduce TTF1 expression” and the “RAD51 expression at the mRNA level” value [8, 15] was “strong RAD51 downregulation”. The “downregulation of cell cycle promoting genes (E2F1, E2F2 and CCNE1)” value [8, 16] was “more pronounced; also recorded: only occurred in response to a combined treatment”, the 4E-BP1 phosphorylation state ([9]; FIG. 3) was “marked accumulation of the unphosphorylated form” and the “mTOR activity (levels of phosphorylated p70S6K and eIF4E)” value ([9]; FIG. 3) was “marked inhibition of mTOR activity”. For the same compound, the “RAD51 expression at the protein level” value ([9]; FIG. 6B) was “strong RAD51 downregulation”, the “gene ontology/pathway analysis of differentially expressed genes” value ([10]; MCF7, FMD added to tamoxifen vs FMD alone or tamoxifen alone, FIG. 5) was “marked changes in pathways related to DNA repair” and the “BRCA1 Log2 fold change” value [10, 17] was −1.372. The “EXO1 Log2 fold change” value [10, 17] was −1.583, the “PCNA Log2 fold change” value [10, 17] was −1.658 and the “RAD51 Log2 fold change” value [10, 17] was −1.864. The “TIPIN Log2 fold change” value [10, 17] was −1.604, the “mouse body weight loss, addition of drug to fasting” value [11] was “failed to worsen weight losses” and the 4E-BP1 phosphorylation state [12, 18] was “marked accumulation of the unphosphorylated form”. For the same compound, the “mTOR activity (levels of phosphorylated p70S6K and eIF4E)” value [12, 18] was “marked inhibition of mTOR activity”, the “RAD51 expression at the protein level” value ([12]; FMD + tamoxifen 5 μM, 24 h, FIG. 6B) was “strong RAD51 downregulation” and the HER2 expression ([12]; FMD in combination with tamoxifen 5 μM, FIG. 3) was “marked reduction in HER2 expression”. The “growth of MCF7 xenografts (tumor volume), drug alone” value ([13]; normal diet, tamoxifen 30 mg/kg/die oral gavage, FIG. 8A) was “reduced the growth” and the “growth of MCF7 xenografts (tumor volume), drug + fasting” value ([13]; tamoxifen 30 mg/kg/die oral gavage + fasting (water only, 48 h, once a week), p<0.05) was “significantly more effective than either type of treatment alone”.

— patent US11963941B2, “Use of a fasting mimicking diet to enhance the efficacy of antiestrogens in cancer” (UNIVERSITA' DEGLI STUDI DI GENOVA, priority 2016, dated 2024)
